Experimental data: PubChem BioAssay (NCI)
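96-well plates; 48 h exposure; 5 concentrations. Endpoints by linear interpolation between flanking doses. Not reached: highest tested concentration assigned. GI50 = concentration required for 50% inhibition of growth. Definition used: TGI = concentration required for complete inhibition of growth.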

Tests used:
Assay in all cases: NCI tumour cell line growth inhibition, 48 h
SK-MEL-5 melanoma = tested on: SK-MEL-5 melanoma
UACC-62 melanoma = tested on: UACC-62 melanoma
IGROV1 ovarian = tested on: IGROV1 ovarian
HT29 colon = tested on: HT29 colon
MALME-3M melanoma = tested on: MALME-3M melanoma
OVCAR-3 ovarian = tested on: OVCAR-3 ovarian
SK-MEL-2 melanoma = tested on: SK-MEL-2 melanoma
SK-OV-3 ovarian = tested on: SK-OV-3 ovarian
LOX IMVI melanoma = tested on: LOX IMVI melanoma
RXF 393 renal = tested on: RXF 393 renal
RPMI-8226 leukemia = tested on: RPMI-8226 leukemia
CAKI-1 renal = tested on: CAKI-1 renal
MOLT-4 leukemia = tested on: MOLT-4 leukemia
ACHN renal = tested on: ACHN renal
HOP-62 NSCLC = tested on: HOP-62 NSCLC
HCC-2998 colon = tested on: HCC-2998 colon
NCI-H226 lung = tested on: NCI-H226 lung
SNB-19 CNS = tested on: SNB-19 CNS
A549 NSCLC = tested on: A549 NSCLC
OVCAR-8 ovarian = tested on: OVCAR-8 ovarian
SK-MEL-28 melanoma = tested on: SK-MEL-28 melanoma
HCT-116 colon = tested on: HCT-116 colon
NCI/ADR-RES ovarian = tested on: NCI/ADR-RES ovarian
SF-268 CNS = tested on: SF-268 CNS
SR leukemia = tested on: SR leukemia
PC-3 prostate = tested on: PC-3 prostate
SN12C renal = tested on: SN12C renal
DU-145 prostate = tested on: DU-145 prostate
U251 CNS = tested on: U251 CNS
NCI-H522 lung = tested on: NCI-H522 lung
HL-60(TB) leukemia = tested on: HL-60(TB) leukemia
A498 renal = tested on: A498 renal
T-47D breast = tested on: T-47D breast
SF-539 CNS = tested on: SF-539 CNS
UO-31 renal = tested on: UO-31 renal
SNB-75 CNS = tested on: SNB-75 CNS
BT-549 breast = tested on: BT-549 breast
MCF7 breast = tested on: MCF7 breast
SW-620 colon = tested on: SW-620 colon
HOP-92 NSCLC = tested on: HOP-92 NSCLC
OVCAR-4 ovarian = tested on: OVCAR-4 ovarian
NCI-H460 lung = tested on: NCI-H460 lung
MDA-MB-231 breast = tested on: MDA-MB-231 breast
786-0 renal = tested on: 786-0 renal
CCRF-CEM leukemia = tested on: CCRF-CEM leukemia
OVCAR-5 ovarian = tested on: OVCAR-5 ovarian
KM12 colon = tested on: KM12 colon
COLO 205 colon = tested on: COLO 205 colon
NCI-H23 lung = tested on: NCI-H23 lung
EKVX NSCLC = tested on: EKVX NSCLC
SF-295 CNS = tested on: SF-295 CNS
TK-10 renal = tested on: TK-10 renal
M14 melanoma = tested on: M14 melanoma
HS 578T breast = tested on: HS 578T breast
UACC-257 melanoma = tested on: UACC-257 melanoma
MDA-MB-435 = tested on: MDA-MB-435

Work on `Cc1ccc2c(n1)C(=O)C(Cl)=C(Nc1cc(C(F)(F)F)cc(C(F)(F)F)c1)C2=O` yielded a GI50 (SK-MEL-5 melanoma) of 3.28 µM, a TGI (SK-MEL-5 melanoma) of 11.4 µM and a GI50 (UACC-62 melanoma) of 4.97 µM. The TGI (UACC-62 melanoma) was 19.3 µM, the GI50 (IGROV1 ovarian) was 3.6 µM and the TGI (IGROV1 ovarian) was 14.1 µM. The GI50 (HT29 colon) was 2.39 µM, the TGI (HT29 colon) was 6.18 µM and the GI50 (MALME-3M melanoma) was 1.67 µM. For the same molecule, the TGI (MALME-3M melanoma) was 3.58 µM, the GI50 (OVCAR-3 ovarian) was 1.61 µM and the TGI (OVCAR-3 ovarian) was 3.02 µM. The GI50 (SK-MEL-2 melanoma) was 3.96 µM, the TGI (SK-MEL-2 melanoma) was 15.6 µM and the GI50 (SK-OV-3 ovarian) was 13.9 µM. It also gave a TGI (SK-OV-3 ovarian) of 27.1 µM, a GI50 (LOX IMVI melanoma) of 1.6 µM and a TGI (LOX IMVI melanoma) of 3.49 µM. For the same molecule, the GI50 (RXF 393 renal) was 1.46 µM, the TGI (RXF 393 renal) was 2.82 µM and the GI50 (RPMI-8226 leukemia) was 1.58 µM. The TGI (RPMI-8226 leukemia) was 5.14 µM, the GI50 (CAKI-1 renal) was 1.5 µM and the TGI (CAKI-1 renal) was 2.94 µM. The GI50 (MOLT-4 leukemia) was 0.305 µM, the TGI (MOLT-4 leukemia) was 1.05 µM and the GI50 (ACHN renal) was 1.92 µM. For the same molecule, the TGI (ACHN renal) was 3.42 µM, the GI50 (HOP-62 NSCLC) was 15.9 µM and the TGI (HOP-62 NSCLC) was 31.3 µM. For the same molecule, the GI50 (HCC-2998 colon) was 4.61 µM, the TGI (HCC-2998 colon) was 18.2 µM and the GI50 (NCI-H226 lung) was 5.36 µM. It also gave a TGI (NCI-H226 lung) of 41.5 µM, a GI50 (SNB-19 CNS) of 13.8 µM and a TGI (SNB-19 CNS) of 40.1 µM. The GI50 (A549 NSCLC) was 16.9 µM, the TGI (A549 NSCLC) was 38 µM and the GI50 (OVCAR-8 ovarian) was 4.16 µM. It also gave a TGI (OVCAR-8 ovarian) of 24.2 µM, a GI50 (SK-MEL-28 melanoma) of 2.21 µM and a TGI (SK-MEL-28 melanoma) of 4.29 µM. The GI50 (HCT-116 colon) was 1.43 µM, the TGI (HCT-116 colon) was 2.94 µM and the GI50 (NCI/ADR-RES ovarian) was 2.74 µM. The TGI (NCI/ADR-RES ovarian) was 8.6 µM, the GI50 (SF-268 CNS) was 6.38 µM and the TGI (SF-268 CNS) was 23.5 µM. For the same molecule, the GI50 (SR leukemia) was 0.31 µM, the TGI (SR leukemia) was 1.98 µM and the GI50 (PC-3 prostate) was 5.29 µM. For the same molecule, the TGI (PC-3 prostate) was 20 µM, the GI50 (SN12C renal) was 4.55 µM and the TGI (SN12C renal) was > 100 µM. For the same molecule, the GI50 (DU-145 prostate) was 2.6 µM, the TGI (DU-145 prostate) was 6.47 µM and the GI50 (U251 CNS) was 10.3 µM. For the same molecule, the TGI (U251 CNS) was 23.5 µM, the GI50 (NCI-H522 lung) was 1.95 µM and the TGI (NCI-H522 lung) was 5.97 µM. For the same molecule, the GI50 (HL-60(TB) leukemia) was 0.547 µM, the TGI (HL-60(TB) leukemia) was 2.58 µM and the GI50 (A498 renal) was 8.72 µM. The TGI (A498 renal) was 22 µM, the GI50 (T-47D breast) was 1.63 µM and the TGI (T-47D breast) was 5.18 µM. It also gave a GI50 (SF-539 CNS) of 5.4 µM, a TGI (SF-539 CNS) of 18.3 µM and a GI50 (UO-31 renal) of 1.41 µM. For the same molecule, the TGI (UO-31 renal) was 2.83 µM, the GI50 (SNB-75 CNS) was 9.23 µM and the TGI (SNB-75 CNS) was 22.6 µM. The GI50 (BT-549 breast) was 1.86 µM, the TGI (BT-549 breast) was 6.61 µM and the GI50 (MCF7 breast) was 2.13 µM. It also gave a TGI (MCF7 breast) of 5.45 µM, a GI50 (SW-620 colon) of 2.29 µM and a TGI (SW-620 colon) of 5.32 µM. For the same molecule, the GI50 (HOP-92 NSCLC) was 1.57 µM, the TGI (HOP-92 NSCLC) was 3.51 µM and the GI50 (OVCAR-4 ovarian) was 1.44 µM. It also gave a TGI (OVCAR-4 ovarian) of 2.79 µM, a GI50 (NCI-H460 lung) of 13.7 µM and a TGI (NCI-H460 lung) of 36.8 µM. For the same molecule, the GI50 (MDA-MB-231 breast) was 3.54 µM, the TGI (MDA-MB-231 breast) was 14 µM and the GI50 (786-0 renal) was 1.72 µM. For the same molecule, the TGI (786-0 renal) was 3.36 µM, the GI50 (CCRF-CEM leukemia) was 0.651 µM and the TGI (CCRF-CEM leukemia) was 3.59 µM. The GI50 (OVCAR-5 ovarian) was 19.4 µM, the TGI (OVCAR-5 ovarian) was 38.4 µM and the GI50 (KM12 colon) was 12.3 µM. For the same molecule, the TGI (KM12 colon) was 28.9 µM, the GI50 (COLO 205 colon) was 1.93 µM and the TGI (COLO 205 colon) was 4.31 µM. For the same molecule, the GI50 (NCI-H23 lung) was 1.92 µM, the TGI (NCI-H23 lung) was 4.94 µM and the GI50 (EKVX NSCLC) was 2.22 µM. The TGI (EKVX NSCLC) was 5.45 µM, the GI50 (SF-295 CNS) was 12.6 µM and the TGI (SF-295 CNS) was 25.8 µM. For the same molecule, the GI50 (TK-10 renal) was 1.88 µM, the TGI (TK-10 renal) was 3.31 µM and the GI50 (M14 melanoma) was 4.24 µM. For the same molecule, the TGI (M14 melanoma) was 17.9 µM, the GI50 (HS 578T breast) was 10.6 µM and the TGI (HS 578T breast) was 76.4 µM. For the same molecule, the GI50 (UACC-257 melanoma) was 1.68 µM, the TGI (UACC-257 melanoma) was 3.3 µM and the GI50 (MDA-MB-435) was 4.67 µM. The TGI (MDA-MB-435) was 16.4 µM.

With `COc1ccc(-c2nc3cc(Cl)c(Cl)cc3n2CC(=O)N=Nc2c(O)[nH]c3ccc(Br)cc23)cc1` the GI50 (RXF 393 renal) was 1.87 µM, the TGI (RXF 393 renal) was 3.71 µM and the GI50 (NCI-H226 lung) was 3.75 µM. The TGI (NCI-H226 lung) was > 100 µM, the GI50 (SF-268 CNS) was 3.62 µM and the TGI (SF-268 CNS) was > 100 µM. It also gave a GI50 (SNB-75 CNS) of 2.11 µM, a TGI (SNB-75 CNS) of 12.4 µM and a GI50 (BT-549 breast) of 6.73 µM. The TGI (BT-549 breast) was > 100 µM, the GI50 (HS 578T breast) was 2.05 µM and the TGI (HS 578T breast) was 5.72 µM.
